Measurements reported in patent US20100331357A1, “PHARMACEUTICAL COMPOSITION” (TAKEDA PHARMACEUTICAL COMPANY LIMITED, priority 2008, published 2010).

Experiments:
Assay type in all cases: physicochemical
[1] = Solubility by eye observation with stepwise addition of solution; conditions: thermodynamic from solid
Description: (§1) Each of the solutions (0.1 mL) shown in Table 1 was added to compound A1 hydrochloride (about 2 mg), and solubility was confirmed with eye observation. When insoluble materials were recognized, the solution (0.1 mL) was further added, and solubility was confirmed by eye observation in the same manner. When insoluble materials were still recognized, the solution was thereafter added in the amounts of 0.05 mL, 0.15 mL, 0.4 mL, 0.4 mL, 0.4 mL and 0.4 mL, respectively in this order, and solubility was confirmed by eye observation. The concentration of the compound A1 hydrochloride determined from the total amount of the solution added up to the time point at which insoluble materials were not recognized, was taken as the solubility.
as §1, with “Table 2” for “Table 1”
as §1, with “Table 3” for “Table 1”
as §1, with “Table 4” for “Table 1”

[2] = Saturation solubility, shaken 18 hours at 25° C., filtered, HPLC; conditions: thermodynamic from solid, 40 mM Citric acid
Description: To each of the various solutions shown in Table 5, compound A1 hydrochloride was added in an amount exceeding the saturation concentration, and the mixture was shaken for 18 hours at 25° C.

[3] = Saturation solubility, shaken 18 hours at 5° C., filtered, HPLC; conditions: thermodynamic from solid, 40 mM Citric acid, NaOH, as free form
Description: To each of the various solutions shown in Table 6, compound A1 hydrochloride was added in an amount exceeding the saturation concentration, and the mixture was shaken for 18 hours at 5° C.

CCS(=O)(=O)c1cccc(-c2cc(C(=O)NC3CCN(C)CC3)c(C)c3[nH]c4ncc(C)cc4c23)c1.Cl [compound A1 hydrochloride, 5-(3-(ethylsulfonyl)phenyl)-3,8-dimethyl-N-(1-methylpiperidin-4-yl)-9H-pyrido[2,3-b]indole-7-carboxamide hydrochloride]
solubility ([1]; 5 w/v % D-mannitol in water for injection, saline or isotonic): ~1100 µg/mL
solubility ([1]; 5 w/v % D-sorbitol in water for injection, saline or isotonic): ~1300 µg/mL
solubility ([1]; 5 w/v % glucose in water for injection, saline or isotonic): ~1300 µg/mL
solubility ([1]; 10 w/v % Dextran 40 in water for injection, aqueous with cosolvent or surfactant or cyclodextrin): < 1300 µg/mL
solubility ([1]; 10 w/v % Polysorbate 20 in water for injection, aqueous with cosolvent or surfactant or cyclodextrin): ~1800 µg/mL
solubility ([1]; 10 w/v % Polysorbate 80 in water for injection, aqueous with cosolvent or surfactant or cyclodextrin): ~2200 µg/mL
solubility ([1]; 10 w/v % maltose in water for injection, saline or isotonic): ~1400 µg/mL
solubility ([1]; 10 w/v % sucrose in water for injection, saline or isotonic): ~1200 µg/mL
solubility ([1]; 30 w/v % maltosyl-β-cyclodextrin in water for injection, aqueous with cosolvent or surfactant or cyclodextrin): ~10800 µg/mL
solubility ([1]; aqueous with cosolvent or surfactant or cyclodextrin, 30 w/v % 2-Hydroxypropyl-β-cyclodextrin in water for injection): ~10400 µg/mL
solubility ([1]; aqueous with cosolvent or surfactant or cyclodextrin, 30 w/v % Sulfobutyl ether-β-cyclodextrin sodium salt (Captisol, clinical grade) in water for injection): ~9200 µg/mL
solubility ([1]; citric acid buffer solution, pH 2, aqueous buffer, 100 mM Citric acid buffer solution pH 2): ~2100 µg/mL
solubility ([1]; citric acid buffer solution, pH 3, aqueous buffer, 100 mM Citric acid buffer solution pH 3): ~1000 µg/mL
solubility ([1]; citric acid buffer solution, pH 4, aqueous buffer, 100 mM Citric acid buffer solution pH 4): < 1300 µg/mL
solubility ([1]; citric acid buffer solution, pH 5, aqueous buffer, 100 mM Citric acid buffer solution pH 5): < 1300 µg/mL
solubility ([1]; citric acid buffer solution, pH 7, aqueous buffer, 100 mM Citric acid buffer solution pH 7): < 1200 µg/mL
solubility ([1]; citric acid buffer solution, pH 9, aqueous buffer, 100 mM Citric acid buffer solution pH 9): < 1200 µg/mL
solubility ([1]; citric acid buffer solutions, aqueous buffer, citric acid buffer solutions of Table 1): < 8000 µg/mL
solubility ([1]; cyclodextrin derivative solutions, aqueous with cosolvent or surfactant or cyclodextrin, all cyclodextrin derivative solutions shown in Table 4): ≥ 8000 µg/mL
solubility ([1]; ethanol, organic solvent or mixture, 100 w/v % Ethanol): < 1200 µg/mL
solubility ([1]; polyethylene glycol 300, organic solvent or mixture, 100 w/v % Polyethylene glycol 300): < 1100 µg/mL
solubility ([1]; polyethylene glycol 400, organic solvent or mixture, 100 w/v % Polyethylene glycol 400): < 1300 µg/mL
solubility ([1]; solutions of solubilizers, aqueous with cosolvent or surfactant or cyclodextrin, solutions of solubilizers in Table 3): < 8000 µg/mL
solubility ([1]; solutions of sugars, saline or isotonic, solutions of sugars in Table 2): < 8000 µg/mL
solubility ([1]; soybean oil, oil or lipid, 100 w/v % Soybean oil): < 1200 µg/mL
solubility ([1]; water for injection, water): < 1200 µg/mL
solubility at 18 h ([2]; aqueous with cosolvent or surfactant or cyclodextrin, 5 w/v % Sulfobutyl ether-β-cyclodextrin sodium salt (Captisol, research grade), HCl, pH 2.5, as free form): 29200 µg/mL
solubility at 18 h ([2]; aqueous with cosolvent or surfactant or cyclodextrin, 5 w/v % Sulfobutyl ether-β-cyclodextrin sodium salt (Captisol, research grade), NaOH, pH 4, as free form): 24500 µg/mL
solubility at 18 h ([2]; aqueous with cosolvent or surfactant or cyclodextrin, 5 w/v % Sulfobutyl ether-β-cyclodextrin sodium salt (Captisol, research grade), NaOH, pH 5, as free form): 22900 µg/mL
solubility at 18 h ([2]; citric acid solution in water for injection, aqueous buffer, water for injection, HCl, pH 2.5, as compound A1 (free form)): 8000 µg/mL
solubility at 18 h ([2]; citric acid solution in water for injection, aqueous buffer, water for injection, NaOH, pH 4, as free form): 300 µg/mL
solubility at 18 h ([2]; citric acid solution in water for injection, aqueous buffer, water for injection, NaOH, pH 5, as free form): 100 µg/mL
solubility at 18 h ([3]; citric acid solution in water for injection, pH 4, aqueous buffer, water for injection): 100 µg/mL
solubility at 18 h ([3]; pH 4, aqueous with cosolvent or surfactant or cyclodextrin, 2.5 w/v % Sulfobutyl ether-β-cyclodextrin sodium salt): 13000 µg/mL
solubility at 18 h ([3]; pH 4, aqueous with cosolvent or surfactant or cyclodextrin, 5 w/v % Sulfobutyl ether-β-cyclodextrin sodium salt): 20900 µg/mL
solubility at 18 h ([3]; pH 4, aqueous with cosolvent or surfactant or cyclodextrin, 7.5 w/v % Sulfobutyl ether-β-cyclodextrin sodium salt): 27600 µg/mL
solubility at 18 h ([3]; pH 4, aqueous with cosolvent or surfactant or cyclodextrin, 10 w/v % Sulfobutyl ether-β-cyclodextrin sodium salt): 32800 µg/mL
solubility at 18 h ([3]; pH 4, aqueous with cosolvent or surfactant or cyclodextrin, 12 w/v % Sulfobutyl ether-β-cyclodextrin sodium salt): 35400 µg/mL
solubility at 18 h ([3]; pH 4, aqueous with cosolvent or surfactant or cyclodextrin, 20 w/v % Sulfobutyl ether-β-cyclodextrin sodium salt): 43600 µg/mL
solubility at 18 h ([3]; pH 4, aqueous with cosolvent or surfactant or cyclodextrin, 30 w/v % Sulfobutyl ether-β-cyclodextrin sodium salt): 49900 µg/mL
